Measured values: patent US20080176810A1, “Use of 3, 4', 5-Trihydroxy-Stilbene-3-Beta-D-glucoside in Prepartion of Medicines For Treating and/or Preventing Ischemic Heart Disease” (SHENZHEN NEPTUNUS PHARMACEUTICAL CO., LTD., priority 2004, published 2008)

System: anesthetized dogs
Test: Myocardial oxygen consumption, coronary flow, cardiac output in anesthetized dogs, iv
Type: in vivo
Details: c3-c8 5,15,30,60,90,120 min after administration; for coronary artery resistance, x ± s / myocardial oxygen consumption, x ± s / total peripheral resistance (TPR), x ± s / cardiac output, x ± s / myocardial oxygen uptake, x ± s: c2 0 min before
Procedure: Isosorbide Dinitrate control group were medicated by continuous intravenous infusion and other groups by intravenous injection.
The animals were anesthetised with 3% pentobarbital sodium iv at the dose of 30 mg/kg. Tracheal intubation was performed and SC-M5 anesthesia respirator (manufactured by Shanghai Medical Instrument Factory, frequency: 16˜18 per min, tidal volume: 350˜550 ml) was connected. Bilateral femoral arteries were separated for blood sampling and analyzing and measurement of mean blood pressure. Thoracotomy at the fourth intercostal space was performed to expose the heart and to open the pericardium to make pericardial hammock. Ascending aortic root and upper part of left branch of anterior descending coronary artery were dissociated to put respectively probes of electromagnetic flowmeter (MFV-1100/1200, made by Japanese Nihon Kohden Company) to measure cardiac output and coronary artery flow rate. Right jugular vein was separated for insertion of a cardiac catheter that was guided into coronary venous sinuses before fixation. Synchronously, blood was sampled by drawing from coronary sinus and femoral artery (0.5% heparin was added for anticoagulation). pO2 and pH were detected with a blood gas analyzer (DH-1830 Blood Gas Acid-base Analyze, Nanjing Ananalysis Apparatus Factor) and the values were converted to artery and venous oxygen content. After intravenous infusion of control solvent or the drug, constant infusion for all groups was completed with an electronic constant flow pump (SH-88AB Controllable Intravenous Injector made by Quanzhou Lizhong Electronic Medical Instrument Factory). Both artery and venous blood gas before administration or 5, 15, 30, 60, 90 and 120 min after administration was analyzed and mean blood pressure and cardiac output at 0, 5, 15, 30, 60, 90 and 120 min were observed.
Myocardial oxygen consumption(ml/min/100 g)=coronary flow ml/min/100 g×artery oxygen−coronary sinus oxygen ml %).
Myocardial oxygen uptake (%)=(artery oxygen ml %−coronary sinus oxygen ml %)/artery oxygen ml %
Total peripheral resistance of general circulation(dyn·s·cm−5)=mean arterial blood pressure[MAP(KPa)]×80/cardiac output[CO(L/min)]=mean arterial blood pressure[MAP(mmHg)]×10.6/cardiac output[CO(L/min)]
Coronary resistance[Kpa/ml/min]=mean arterial blood pressure[MAP(KPa)]/coronary artery flow.

[1] = TSG 2.5 mg/kg iv, 0 min, before administration
[2] = TSG 2.5 mg/kg iv, 5 min after administration
[3] = TSG 2.5 mg/kg iv, 15 min after administration
[4] = TSG 2.5 mg/kg iv, 30 min after administration
[5] = TSG 2.5 mg/kg iv, 60 min after administration
[6] = TSG 2.5 mg/kg iv, 90 min after administration
[7] = TSG 2.5 mg/kg iv, 120 min after administration
[8] = TSG 2.5 mg/kg iv, before administration, 0 min
[9] = TSG 5 mg/kg iv, 0 min, before administration
[10] = TSG 5 mg/kg iv, 5 min after administration
[11] = TSG 5 mg/kg iv, 15 min after administration
[12] = TSG 5 mg/kg iv, 30 min after administration
[13] = TSG 5 mg/kg iv, 60 min after administration
[14] = TSG 5 mg/kg iv, 90 min after administration
[15] = TSG 5 mg/kg iv, 120 min after administration

With “3,4′,5-trihydroxy-stilbene-3-β-D-glucoside [TSG]” as the substance, how does the “coronary artery resistance, x ± s” value [1] read?
Its value is 0.268 ± 0.050 Kpa/ml/min.

And the “myocardial oxygen consumption, x ± s” value [1]?
The value was 214.6 ± 5.24 mL/min.100 g^−1.

And the “total peripheral resistance (TPR), x ± s” value [1]?
Its value is 888.8 ± 200.9 dyn·s·cm^−5.

And the “cardiac output, x ± s” value [2]?
Its value is 1.09 ± 0.12 L/min.

What about the “coronary artery resistance, x ± s” value [2] of the same substance?
The value was 0.269 Kpa/ml/min.

And the “myocardial oxygen consumption, x ± s” value [2]?
Its value is 215.5 ± 8.73 mL/min.100 g^−1.

And the “myocardial oxygen uptake, x ± s” value [2]?
The value was 77.4%.

What about the “total peripheral resistance (TPR), x ± s” value [2] of the same substance?
Its value is 873.5 ± 210.3 dyn·s·cm^−5.

What about the “cardiac output, x ± s” value [3] of the same substance?
Its value is 1.09 ± 0.14 L/min.

And the “coronary artery resistance, x ± s” value [3]?
The value was 0.266 ± 0.049 Kpa/ml/min.

What about the “total peripheral resistance (TPR), x ± s” value [3] of the same substance?
The value was 888.7 ± 208.8 dyn·s·cm^−5.

What about the “cardiac output, x ± s” value [4] of the same substance?
The value was 1.10 ± 0.13 L/min.

What about the “coronary artery resistance, x ± s” value [4] of the same substance?
The value was 0.257 ± 0.054 Kpa/ml/min.

And the “myocardial oxygen consumption, x ± s” value [4]?
The value was 218.2 ± 6.85 mL/min.100 g^−1.

What about the “myocardial oxygen uptake, x ± s” value [4] of the same substance?
Its value is 74.2 ± 5.11%.

And the “total peripheral resistance (TPR), x ± s” value [4]?
The value was 869.1 ± 249.3 dyn·s·cm^−5.

And the “cardiac output, x ± s” value [5]?
Its value is 1.11 ± 0.13 L/min.

What about the “coronary artery resistance, x ± s” value [5] of the same substance?
Its value is 0.261 ± 0.051 Kpa/ml/min.

What about the “myocardial oxygen consumption, x ± s” value [5] of the same substance?
The value was 218.0 ± 8.95 mL/min.100 g^−1.

And the “myocardial oxygen uptake, x ± s” value [5]?
The value was 73.1 ± 6.16%.

What about the “total peripheral resistance (TPR), x ± s” value [5] of the same substance?
The value was 890.2 ± 240.3 dyn·s·cm^−5.

And the “coronary artery resistance, x ± s” value [6]?
The value was 0.267 ± 0.054 Kpa/ml/min.

And the “myocardial oxygen consumption, x ± s” value [6]?
The value was 214.1 ± 8.39 mL/min.100 g^−1.

What about the “myocardial oxygen uptake, x ± s” value [6] of the same substance?
The value was 75.0 ± 6.24%.

And the “total peripheral resistance (TPR), x ± s” value [6]?
Its value is 877.6 ± 225.1 dyn·s·cm^−5.

What about the “cardiac output, x ± s” value [7] of the same substance?
Its value is 1.10 ± 0.14 L/min.

And the “coronary artery resistance, x ± s” value [7]?
Its value is 0.271 ± 0.055 Kpa/ml/min.

And the “total peripheral resistance (TPR), x ± s” value [7]?
Its value is 868.6 ± 221.8 dyn·s·cm^−5.

What about the “cardiac output, x ± s” value [8] of the same substance?
Its value is 1.06 ± 0.13 L/min.

What about the “myocardial oxygen uptake, x ± s” value [8] of the same substance?
Its value is 76.9 ± 5.50%.

And the “cardiac output, variation %” value [2]?
Its value is 2.50 ± 2.42%.

And the “coronary artery resistance, variation %” value [2]?
The value was 0.81%.

And the “myocardial oxygen consumption, variation %” value [2]?
The value was 0.40 ± 3.16%.

And the “myocardial oxygen uptake, variation %” value [2]?
The value was 0.72%.

What about the “total peripheral resistance (TPR), variation %” value [2] of the same substance?
Its value is −1.89 ± 6.74%.

What about the “cardiac output, variation %” value [3] of the same substance?
The value was 1.97 ± 1.55%.

What about the “coronary artery resistance, variation %” value [3] of the same substance?
Its value is −0.34 ± 2.36%.

What about the “total peripheral resistance (TPR), variation %” value [3] of the same substance?
Its value is −0.10 ± 4.21%.

What about the “cardiac output, variation %” value [4] of the same substance?
Its value is 3.88 ± 3.48%.

What about the “coronary artery resistance, variation %” value [4] of the same substance?
The value was −3.82 ± 9.83%.

What about the “myocardial oxygen consumption, variation %” value [4] of the same substance?
The value was 1.66 ± 1.48%.

And the “myocardial oxygen uptake, variation %” value [4]?
Its value is −3.47 ± 1.59%.

And the “total peripheral resistance (TPR), variation %” value [4]?
Its value is −3.22 ± 9.65%.

And the “cardiac output, variation %” value [5]?
Its value is 4.41 ± 1.40%.

And the “coronary artery resistance, variation %” value [5]?
Its value is −2.48 ± 8.17%.

And the “myocardial oxygen consumption, variation %” value [5]?
Its value is 1.57 ± 2.94%.

What about the “myocardial oxygen uptake, variation %” value [5] of the same substance?
The value was −4.99 ± 3.01 %.

What about the “total peripheral resistance (TPR), variation %” value [5] of the same substance?
Its value is −0.56 ± 7.52%.

And the “cardiac output, variation %” value [6]?
Its value is 4.40 ± 1.64%.

What about the “coronary artery resistance, variation %” value [6] of the same substance?
Its value is −0.24 ± 10.72%.

What about the “myocardial oxygen consumption, variation %” value [6] of the same substance?
Its value is −0.25 ± 2.84%.

What about the “myocardial oxygen uptake, variation %” value [6] of the same substance?
The value was −2.58 ± 2.67 %.

And the “total peripheral resistance (TPR), variation %” value [6]?
The value was −1.52 ± 9.42%.

What about the “cardiac output, variation %” value [7] of the same substance?
Its value is 3.23 ± 2.57%.

And the “coronary artery resistance, variation %” value [7]?
The value was 1.19 ± 6.55%.

And the “total peripheral resistance (TPR), variation %” value [7]?
The value was −2.58 ± 7.26%.

And the “coronary artery resistance, x ± s” value [9]?
Its value is 0.299 ± 0.029 Kpa/ml/min.

What about the “myocardial oxygen consumption, x ± s” value [9] of the same substance?
The value was 211.4 ± 4.05 mL/min.100 g^−1.

What about the “total peripheral resistance (TPR), x ± s” value [9] of the same substance?
Its value is 906.3 ± 193.9 dyn·s·cm^−5.

And the “cardiac output, x ± s” value [10]?
The value was 1.13 ± 0.12 L/min.

And the “coronary artery resistance, x ± s” value [10]?
Its value is 0.308 Kpa/ml/min.

What about the “myocardial oxygen consumption, x ± s” value [10] of the same substance?
Its value is 210.4 ± 6.48 mL/min.100 g^−1.

What about the “myocardial oxygen uptake, x ± s” value [10] of the same substance?
The value was 79.6%.

What about the “total peripheral resistance (TPR), x ± s” value [10] of the same substance?
Its value is 897.1 ± 184.7 dyn·s·cm^−5.

And the “cardiac output, x ± s” value [11]?
The value was 1.13 ± 0.13 L/min.

And the “coronary artery resistance, x ± s” value [11]?
Its value is 0.305 ± 0.029 Kpa/ml/min.

What about the “total peripheral resistance (TPR), x ± s” value [11] of the same substance?
Its value is 916.6 ± 186.2 dyn·s·cm^−5.

And the “cardiac output, x ± s” value [12]?
Its value is 1.15 ± 0.14 L/min.

And the “coronary artery resistance, x ± s” value [12]?
Its value is 0.299 ± 0.026 Kpa/ml/min.

What about the “myocardial oxygen consumption, x ± s” value [12] of the same substance?
The value was 210.2 ± 8.65 mL/min.100 g^−1.

What about the “myocardial oxygen uptake, x ± s” value [12] of the same substance?
The value was 74.8 ± 5.66%.

And the “total peripheral resistance (TPR), x ± s” value [12]?
Its value is 915.2 ± 199.9 dyn·s·cm^−5.

What about the “cardiac output, x ± s” value [13] of the same substance?
The value was 1.16 ± 0.14 L/min.

And the “coronary artery resistance, x ± s” value [13]?
The value was 0.288 ± 0.026 Kpa/ml/min.

And the “myocardial oxygen consumption, x ± s” value [13]?
Its value is 212.9 ± 7.2 mL/min.100 g^−1.

What about the “myocardial oxygen uptake, x ± s” value [13] of the same substance?
The value was 74.5 ± 6.05%.

And the “total peripheral resistance (TPR), x ± s” value [13]?
Its value is 907.8 ± 194.0 dyn·s·cm^−5.

And the “cardiac output, x ± s” value [14]?
The value was 1.16 ± 0.13 L/min.

And the “coronary artery resistance, x ± s” value [14]?
The value was 0.287 ± 0.028 Kpa/ml/min.

What about the “myocardial oxygen consumption, x ± s” value [14] of the same substance?
The value was 209.6 ± 9.01 mL/min.100 g^−1.

And the “myocardial oxygen uptake, x ± s” value [14]?
Its value is 75.1 ± 6.48%.

What about the “total peripheral resistance (TPR), x ± s” value [14] of the same substance?
The value was 891.7 ± 188.6 dyn·s·cm^−5.

What about the “cardiac output, x ± s” value [15] of the same substance?
The value was 1.14 ± 0.13 L/min.

And the “coronary artery resistance, x ± s” value [15]?
Its value is 0.287 ± 0.031 Kpa/ml/min.

And the “total peripheral resistance (TPR), x ± s” value [15]?
The value was 881.8 ± 188.9 dyn·s·cm^−5.
